Measurements reported in US10501462B2, “Pyrrolo[3,2-c]pyridine-6-amino derivatives” (CANCER RESEARCH TECHNOLOGY LIMITED, priority 2015, dated 2019).
pIC50: −log10 of the molar value. Where two headings read alike, the source gives them in different places.

Experiments:
[1] = tested on: HCT116 cells; experiment: MTT cell toxicity assay; format: cell-based; conditions: Homo sapiens, HCT-116, 72 h incubation
Procedure: Cell proliferation assays were carried out using a colorimetric 3-(4,5-dimethylthiazol-2-yl)-2,5-diphenyltetrazolium bromide (MTT) assay (Sigma). 1.5×10^3 HCT116 cells, purchased from ATCC, were plated in 96-well plates at in 100 μL of culture medium in triplicates. Next day three fold dilutions of the compounds to be tested were made in culture medium so that, when diluted, the final concentration in the wells ranged from 0 to 10 μM. 25 μL of compounds dilutions in the medium was added to 100 μL of cells and incubated at 37° C. and 5% CO2 for 72 h. Cells were then incubated with 40 μL of 5 mg/mL MTT reagent at 37° C. for 3 h. The medium was carefully removed and crystals dissolved in 100 μL of DMSO. The absorbance was measured at 570 nm with the Wallac VICTOR2 1420 Multilabel Counter (PerkinElmer) and analysis performed to calculate the GI50 using GraphPad PRISM.

[2] = Pharmacokinetic profile in mice (Mouse PK); format: in vivo; conditions: female, BALB/c, whole blood, 5 mg/kg, i.v. and p.o. at 5 mg/kg
Procedure: The pharmacokinetic profile of the compounds of the invention was assessed using the following procedure:
Female BALB/c mice (approximately 8 weeks old) from Charles River UK Ltd. (Margate, United Kingdom) were kept in a controlled environment with food and sterilized water available ad libitum. Animals weighed 20±3 g at the time of experiment. Dosing solutions were prepared by dissolving the compounds in 10% DMSO, 5% Tween 20 and 85% saline. The compounds were administered i.v. and p.o. at 5 mg/kg. Animals were warmed before receiving a single i.v. bolus injection into a lateral tail vein. P.o. administration was by gavage. Control animals received the vehicle alone. Groups of three mice were injected per dose route. Blood was collected at 5, 15 and 30 minutes and at 1, 2, 4 and 6 and 24 hours by serial sampling from the tail vein of individual mice after warming using sodium heparin-coated capillaries and 20 μl blood spotted onto Whatman FTA DMPK-B cards.
Calibration standards and QCs were prepared in tail vein blood. 20 μl blood spotted onto Whatman FTA DMPK-B cards. When dry, all standard, QC and sample spots were punched with a Harris Unicore 6 mm punch and 200 μl of methanol containing internal standard was added. Samples were centrifuged for 5 minutes and supernatant taken for analysis by LC-MS. […]

[3] = molecular target: T1, full length Mps1 (Homo sapiens, UniProt P33981); experiment: Measurement of inhibition of Mps1 kinase (Caliper EZ reader, H236 peptide); format: biochemical; conditions: full length Mps1, 60 min at room temperature
T1 construct: black 384-well low volume plates containing full length Mps1 (12.5 nM or 3 nM)
T1 sequence (P33981 1-857): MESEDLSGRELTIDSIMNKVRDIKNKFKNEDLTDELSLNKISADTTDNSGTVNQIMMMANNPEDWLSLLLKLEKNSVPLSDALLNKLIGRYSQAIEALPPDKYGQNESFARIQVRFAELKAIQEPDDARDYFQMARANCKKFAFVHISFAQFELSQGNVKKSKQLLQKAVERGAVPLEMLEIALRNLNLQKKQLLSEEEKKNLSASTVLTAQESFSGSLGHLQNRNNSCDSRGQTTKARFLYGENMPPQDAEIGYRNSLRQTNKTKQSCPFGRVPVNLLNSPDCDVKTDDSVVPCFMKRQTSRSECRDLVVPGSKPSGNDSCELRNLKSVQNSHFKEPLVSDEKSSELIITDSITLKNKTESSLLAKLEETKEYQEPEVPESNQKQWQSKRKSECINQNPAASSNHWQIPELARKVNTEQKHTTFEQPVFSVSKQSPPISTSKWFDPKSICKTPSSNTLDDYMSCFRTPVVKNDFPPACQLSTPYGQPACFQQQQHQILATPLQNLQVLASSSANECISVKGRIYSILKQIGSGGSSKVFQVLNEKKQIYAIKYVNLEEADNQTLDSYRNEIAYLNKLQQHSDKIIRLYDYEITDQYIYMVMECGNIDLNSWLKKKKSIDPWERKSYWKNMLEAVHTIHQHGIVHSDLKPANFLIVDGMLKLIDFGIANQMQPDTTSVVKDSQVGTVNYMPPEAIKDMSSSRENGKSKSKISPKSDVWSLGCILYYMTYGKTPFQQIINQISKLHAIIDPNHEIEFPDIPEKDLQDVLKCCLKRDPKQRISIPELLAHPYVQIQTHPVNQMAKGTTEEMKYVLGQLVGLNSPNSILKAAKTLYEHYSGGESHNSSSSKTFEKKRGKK
Procedure: The enzyme reaction (total volume 10 μl) was carried out in black 384-well low volume plates containing full length Mps1 (12.5 nM or 3 nM), fluorescent labelled peptide [known as H236, which has the sequence: 5FAM-[…]-CONH2] (5 μM), ATP ([…]), either DMSO (1% v/v) or the test compound (in the range 0.25 nM-100 μM in 1% DMSO) and assay buffer (50 mM HEPES (pH 7.0), 0.02% NaN3, 0.01% BSA, 0.1 mM Orthovandate, […], […], Roche protease inhibitor). The reaction was carried out for 60 min at room temperature and stopped by the addition of buffer (10 μl) containing 20 mM EDTA, 0.05% (v/v) Brij-35, in 0.1M HEPES-buffered saline (Free acid, Sigma, UK). The plate was read on a Caliper EZ reader II (Caliper Life Sciences).
The % inhibition of the compounds is calculated relative to the means of selected control wells. […] The % inhibitions at each concentration are then fitted to a 4 parameter logistic fit: y=(a+((b−a)/(1+((c/x^d)))) where a=asym min, b=asym max, c=IC50 and d=hill coefficient

[4] = Human liver microsomal stability (HLM assay); format: in vitro ADME; conditions: human liver microsomes 1 mg/mL, 10 μmol/L test compound, 37° C.
Procedure: The human liver microsomal stability of the compounds of the invention was tested using the following procedure:
Mixed gender pooled human liver microsomes were purchased from Tebu-bio (Peterborough, U.K.). Samples contained final concentrations of 1 mg/mL microsomal protein, 3 mmol/L MgCl2, 1 mmol/L NADPH, 2.5 mmol/L, UDP-glucuronic acid, and 10 mmol/L phosphate buffer (pH 7.4) (all purchased from Sigma Aldrich, Gilingham, U.K). Reactions, at 37° C., were started by addition of 10 μmol/L test compound and were terminated at 0, 15 and 30 minutes by the addition of 3 volumes of ice-cold methanol containing internal standard. Samples were centrifuged at 2,800×g for 30 minutes at 4° C. and the supernatants analyzed. Control incubations were prepared as above with omission of cofactors. […]

[5] = read-out: GI50 in the MTT assay
[6] = read-out: MTT assay HCT116 GI50

| clearance [2] | pIC50 [3] | HLM Assay (% of parent compound degraded at 30 minutes) [4] | Compound | GI50 [1, 5] | GI50 [1, 6] |
| --- | --- | --- | --- | --- | --- |
| < 3.5 mL/min/kg | 8.92 | – | COc1cc(-c2cnnn2C)ccc1Nc1cc2c(cn1)cc(-c1cnn(C)c1)n2C(=O)OC(C)C [Example 1, Isopropyl 6-(2-methoxy-4-(1-methyl-1H-1,2,3-triazol-5-yl)phenylamino)-2-(1-methyl-1H-pyrazol-4-yl)-1H-pyrrolo[3,2-c]pyridine-1-carboxylate] | ≤ 150 nM | 59.4 nM |
| 5 mL/min/kg | – | 22.1% | Cn1cc(C2=[N+](C(=O)OC(C)(C)C)c3cc(Nc4ccc(-c5nncn5C)cc4Cl)ncc3C2)cn1 [Comparator 1, reference compound] | – | 360 nM |
| – | – | 39% | Cn1cc(C2=[N+](C(=O)OC(C)(C)C)c3cc(Nc4ccc(-c5ccnn5C)cc4Cl)ncc3C2)cn1 [Comparator 3, reference compound] | – | 548 nM |
| – | 8.55 | – | COc1cc(-c2nnnn2C)ccc1Nc1cc2c(cn1)cc(-c1cnn(C)c1)n2C(=O)OC(C)C [Example 2, Isopropyl 6-(2-methoxy-4-(1-methyl-1H-tetrazol-5-yl)phenylamino)-2-(1-methyl-1H-pyrazol-4-yl)-1H-pyrrolo[3,2-c]pyridine-1-carboxylate] | ≤ 150 nM | 104 nM |
